Compound | melting point [°C]
COCCOc1ccc2c(c1)OCC21C(=O)N(Cc2ccccn2)c2ccccc21 (stereo not drawn) | 94 to 95
CC(=O)Nc1ccc(NC(=O)c2ccc(O)cc2)cc1 | 160
CN1CCN(C(=O)C(C)(C)OCc2nn(Cc3ccccc3)c3ccccc23)CC1 | 97 to 98
CCc1c(CCNC(=O)CCCCC(=O)NC(C)(C)Cc2ccc3c(c2CC)OCO3)ccc(OC)c1OC | 103 to 104
COc1ccc2c(c1)c1c3c(c(-c4ccccc4OC)cc1n2CCCO)C(=O)NC3=O | 223 to 225
CN(C(=O)Nc1cccc(C(F)(F)F)c1)S(C)(=O)=O | 72
CC(=O)Nc1ccc(C(=O)c2ccncc2)cc1 | 215
C#CC1(O)CN2CCC1CC2 (stereo not drawn) | 199 to 202
Cc1c(Br)c(=O)n(C2CCCCC2)c(=O)n1N=Cc1ccc(Cl)c(Cl)c1 | 188 to 189
COc1ccc(C(=O)c2cc([N+](=O)[O-])ccc2Cl)cc1OC | 138
CC(=O)NC1CCN(Cc2ccccc2)C1 (stereo not drawn) | 83 to 85
COc1cccc(NC(=O)NC2CC(c3ccccc3)CC(Cc3ccccc3)N(CC(=O)OC(C)(C)C)C2=O)c1 (stereo not drawn) | 95 to 105
C=CCN1CCN(C(=O)Cn2sc3ccccc3c2=O)CC1 | 119 to 120
CC(C)(C)N(Cc1ccccc1)NC(=O)c1ccco1 | 152
COc1ccc(NC(=O)c2ccc(F)c(F)c2)cc1NC(=S)Nc1ccc(C(=O)O)cc1 | 200 to 203
CCCCCCCCCCCCCCOc1ccc(C(C)=O)o1 | 70 to 72
O=C1C(=O)c2ccc(Cl)cc2C2=C1SCC1(CCNCC1)O2 | > 300
O=S1(=O)CCC(c2ccc(N3CCN(CC(O)(Cn4cncn4)c4ccc(Cl)cc4Cl)CC3)cc2)CN1 (stereo not drawn) | 68 to 70
CCN(CC)C(=O)c1ccsc1-c1ccc(F)cc1 | 62 to 63
C(=Cc1ccccc1)C=Nc1ccc(Cc2ccc(N=CC=Cc3ccccc3)cc2)cc1 | 162 to 164
CCNc1nc(Cl)c(Cl)c(N2CCN(CC[C@H]3CC[C@H](NC(=O)OC(C)(C)C)CC3)CC2)n1 | 197 to 199
COC(=O)[C@H](CS)NC(=O)[C@@H]1CCC(=S)N1 | 177 to 178
CCCCNC(=NC#N)Nc1cccnc1 | 96 to 97
Cc1c(-c2ccc(C=CC(=O)OC(C)(C)C)cc2)nc2n1CCc1ccccc1C2OC1CCN(C)CC1 (stereo not drawn) | 185
CN1C(=O)CC2(CC(=O)N(Cc3ccccc3)C2)C1=O (stereo not drawn) | 157 to 158
O=C(Nc1c(C(O)(C(F)(F)F)C(F)(F)F)ccc2ccccc12)c1cccc(C(F)(F)F)c1 | 187 to 188

Compound | melting point [°C]
COC(=O)C=C(Nc1coc2ccc(Cl)cc2c1=O)C(=O)OC | 158 to 160
COc1ccc(/C=C/c2cc(OC)c(OC)c(OC)c2)cc1 | 152 to 155
Nc1c(-c2ccccc2)cc(-c2ccccc2)c2cccnc12 | 100 to 102
COC(=O)C1NC(C(=O)OC)C(C(=O)OC)NC1C(=O)OC (stereo not drawn) | 162 to 163
CCOC(=O)COc1ccc2c(c1)CC(CNC(=O)OC(C)(C)C)C2 (stereo not drawn) | 56 to 63
CCCN(CCCc1c[nH]c2ccc(F)cc12)C1COc2c(ccc3ncccc23)C1 (stereo not drawn) | 134
N#CC1=C(c2cccs2)Nc2n[nH]cc2C1c1cccc(C#N)c1Br (stereo not drawn) | > 280
CC1(C)CCC(Cc2ccc(Cl)cc2)=CC1=O | 87 to 90
COC(=O)CC(=O)N1CCC(c2ccc(OC)c(OC3CCCC3)c2)CC1 | 78 to 79
CC(C)(C)c1cc(Sc2nnc(NC(=N)N)s2)cc(C(C)(C)C)c1O | 248 to 249
O=C1c2ccccc2C(=O)N1Cc1ccc(I)cc1Cl | 140 to 142
CCCCCCCN(CCCCCSc1nc(-c2ccccc2)c(-c2ccccc2)[nH]1)c1nc2ccccc2o1 | 58 to 60
O=S(=O)(NCc1ccccc1)c1ccc(N(OCC2CCCCC2)c2ncc3[nH]cnc3n2)cc1 | 222 to 224
Cc1cc(-c2cc(C(F)F)n3ncc(C(=O)O)c3n2)ccc1Cl | 238
CNC(=S)N1CC=C(C(C)(C)C)CC1 | 76 to 78
N#Cc1ccc(N2C(=O)N(CCO)C3(CCOCC3)C2=O)cc1C(F)(F)F | 196 to 197
NC(=O)CC[C@@H](CF)NC(=O)OCc1ccccc1 | 154 to 157
CN1CCN(c2nc3sc4c(NCCN5CCOCC5)ncnc4c3c3c2CCC(C)(C)C3)CC1 | 150 to 151
Nc1nc(NC2CCC2)c2ncn(C3C=CC(CO)C3)c2n1 (stereo not drawn) | 181 to 183
CCC12CCC3c4ccc(OC)cc4CCC3C1CCC2OCCO (stereo not drawn) | 131 to 132
COCCNC(=O)c1cccc(CN2C(=O)C3(COc4cc5c(cc43)CCO5)c3ccccc32)c1 (stereo not drawn) | 72 to 73
O=C1CC2CSc3ccccc3C2=NN1c1ccc(Cl)cc1 (stereo not drawn) | 146 to 147
O=C1CCC2C=C(c3cccnc3)C(O)=CC2N1 (stereo not drawn) | 298
Cc1ccc(S(=O)(=O)OCCCCCCCCCOc2cccc(C(N)=O)c2)cc1 | 78 to 80
COc1ccc(C(=O)Cc2cccnc2)cc1 | 71 to 72
N#Cc1c(N)cccc1N | 91 to 92

Compound | melting point [°C]
O=C(Nc1ccccc1S(=O)(=O)NCC1CCCCC1)N[C@@H](Cc1ccc(NC(=O)c2c(Cl)cncc2Cl)cc1)C(=O)O | 214
CCOC(=O)c1cccc(-c2ccc(F)c3cc(CBr)sc23)c1 | 139 to 140
CCCCCCCOC(=O)C(=C1NCCCS1)[N+](=O)[O-] | 59 to 60
CN(C)CCOc1ccc(C=NO)cc1 | 95 to 96
CCOC(=O)C1=CNC(COCCN)=C(C(=O)OC)C1c1cccc(Cl)c1Cl (stereo not drawn) | 131 to 132
CCOC(=O)CCCn1c(Nc2ccc(Cl)cc2)nc2c(Cl)ccc(C(CC)CC)c21 | 149 to 150
c1cnc2c(OCCn3ccc4ccc5c(c43)CCNCC5)cccc2c1 | 129 to 132
ON=Cc1ccc2c(c1)COC2c1ccc(F)cc1 (stereo not drawn) | 158 to 159
O=C(COc1ccc(CCNS(=O)(=O)c2ccc(Cl)cc2)cc1)Nc1nnn[nH]1 | 228 to 230
O=C(O)CCCCCN1CCCCC1 | 74 to 76
CCOC(=O)C(C#N)=CC=Cc1ccc(C(C)(C)C)cc1 | 65 to 70
CN1C(=O)C(C(=O)Nc2cccc(F)c2)S(=O)(=O)c2ccccc21 (stereo not drawn) | 206 to 208
Oc1ccc(C(O)CN2CCC(O)(c3cccc(F)c3)CC2)cc1 (stereo not drawn) | 154
N#CC(=CNc1ccccc1)Cc1ccc2c(c1)OCO2 | 150 to 151
CC1(C)SC2CC(=O)N2C1C#N (stereo not drawn) | 73 to 75
OCc1cc2c(F)ccc(Br)c2s1 | 80 to 81
C[C@H]1C[C@@](O)(c2cnc(Cl)s2)CCO1 | 40 to 42
O=C(Oc1ccc(Cl)cc1)c1ncn2c1[C@@H]1CCCN1C(=O)c1c(Cl)cccc1-2 | 241 to 242
COC(=O)CC[C@H](NC(=O)c1ccc(NCCCc2c(NC(C)=O)nc(NC(C)=O)[nH]c2=O)cc1)C(=O)OC | 135 to 142
COc1ccc(C(CI)(OC)OC)cc1 | 54 to 55
O=C(O)Cc1ccc(Oc2ccc3c(c2)S(=O)(=O)NC2CCCN32)cc1 (stereo not drawn) | 166 to 169
O=C(O)Cc1c(C(=O)c2cccc(F)c2)[nH]c2cc(Cl)ccc12 | 278 to 281
Nc1nc(-c2cn([C@H](CO)CCc3ccccc3)cn2)n[nH]1 | 80
CCOC(=O)C(CCCc1ccccc1CP(=O)(OCC)OCC)(NC(C)=O)C(=O)OCC | 76 to 79
Cn1cc(S(=O)(=O)NC(C)(C)C)c(=O)n(C)c1=O | 143 to 144
O=C(O)/C=C/c1ccc(N2CCC3(CC2)OCCO3)cc1 | 221 to 222

Compound | melting point [°C]
O=c1ccc(-c2ccc(C(F)(F)F)cc2)n[nH]1 | 191 to 193
Cc1cccc(NC(=N)N(C)C)c1-c1ccccc1 | 181 to 182
CCCC1(C)OC(=O)C(c2ccc(F)c(F)c2)=C1c1ccc(S(C)(=O)=O)cc1 (stereo not drawn) | 89 to 90
COCCS(=O)(=O)c1ccc(F)c(C#Cc2cc(Cl)ccc2OCC(=O)O)c1 | 125 to 128
Cn1nc2nc(C(C)(C)C)[nH]c(=O)c2c1N=Cc1ccccc1 | 250 to 253
Cn1cc(C(=O)O)cc1C(=O)OC(c1ccc2c(c1)OCO2)c1ccc2c(c1)OCO2 | 103 to 110
CC(C)C1C(=O)NC(c2ccc(NC(=O)CCl)cc2)c2ccccc21 (stereo not drawn) | 269 to 270
CCCc1cc(C(=O)O)ccc1OCCCCCCc1cccc(OC)c1OC | 107 to 108
COCC(=O)N(c1c(C)cccc1N)C(C)C(=O)OC (stereo not drawn) | 86 to 88
COc1ccc(C(=NO)c2ccc(OC)cc2)cc1 | 131 to 132
O=C(Nc1ccc(I)cc1Cl)C(F)(F)F | 51 to 52
COc1ccccc1NC(=O)Nc1nc(Nc2ccccc2-c2ccccc2)nc(N(CC(=O)O)Cc2ccc(OC)c(OC)c2)n1 | 115 to 120
CN(C)c1nc(N)nc(-c2cc(Cl)ccc2Cl)n1 | 178 to 179
CCc1ccc2nc(C)[nH]c2c1N1CC(CNC(C)=O)OC1=O (stereo not drawn) | 217 to 218
CC(C)CC(=O)Nc1ccc2oc3c(c2c1)CCCCC3 | 162 to 163
C#CCN(c1ccc(C(=O)NC(CCC(=O)NC(CCC(=O)O)C(=O)O)C(=O)O)cc1)C1CCc2cc3nc(CO)[nH]c(=O)c3cc21 (stereo not drawn) | 172
CC1=CC(=O)C(=NNc2ccc(C#N)cc2)C(=O)O1 | 300
CC(C)[C@H](NC(=O)OCc1ccccc1)C(=O)N[C@@H](Cc1ccccc1)C(=O)C[C@@H]1CCCC[C@H]1C(=O)NC(C)(C)C | 186 to 188
O=C(C1=C(c2ccccc2)c2ccccc2S1=O)c1ccc(O)cc1 (stereo not drawn) | 140 to 145
CC(C)c1c(Cl)sc2[nH]c(=O)c(=O)[nH]c12 | > 250
CCOC(=O)c1cn(-c2ccc(F)cc2F)c2nc(N3CCNCC3)c(F)cc2c1=O | 208 to 211
CCCCOC(=O)c1ccc(N2CCN(c3ccc(CC(C)O)cc3)CC2)cc1 (stereo not drawn) | 85 to 86
CS(=O)(=O)c1ccc(OCCO)cc1 | 89 to 90
c1ccc(N2CCN(CC[C@H]3CC[C@H](c4c[nH]c5ccccc54)CC3)CC2)nc1 | 147 to 148
NC(=O)c1ncccc1OCCNCc1ccccc1 | 110 to 112

From a melting point compilation (Tetko et al.; mined from patent text by program, amines drawn as free bases though some values may be those of a salt)
